Laboratory results reported in patent US12545704B2, “Peptide for treating inflammation and wounds” (NIBEC CO., LTD., priority 2019, dated 2026).
No end group written: not given here.

How the values were obtained:
[1] = system: DSS-induced acute inflammatory bowel disease; assay: Therapeutic effect in animal model of DSS-induced acute inflammatory bowel disease; assay type: in vivo, ICR mice
Protocol: In order to confirm the therapeutic effect of the synthesized peptide in animals, acute inflammatory bowel disease was induced with DSS in ICR mice (Orient Bio), and simultaneously, the synthesized peptide was injected thereto. Inflammation was induced in mice using 5% DSS as drinking water for 7 days, and simultaneously, the synthesized peptide was IP-injected thereto. The normal group (Normal, n=6) was not treated with DSS, and in the untreated group (No treatment, n=6), only DSS was used, and no drug was injected. The positive control group (SAHA, Sigma-Aldrich, 25 mg/kg, n=6), the immunomodulatory control group (Anti-TNF-a antibody, Pfizer, 1 mg/kg, n=6), and the peptide of SEQ ID NO: 1 (50 mg/kg, n=6) were injected once daily. After 7 days, mice were sacrificed by CO2 hyperventilation, the colons were collected, and the lengths thereof were compared. Additionally, the tissue was fixed and processed to prepare a paraffin block, and H&E staining was performed to determine whether the intestinal tissue was damaged.

[2] = IVIS distribution of Cy5.5-labeled peptide in DSS-induced acute inflammatory bowel disease model; assay type: in vivo; conditions: IP injection, DSS mice, 30, 60 and 180 minutes, FIG. 7
Description: In order to confirm distribution of the synthesized peptide to the colon, inflammation was induced in mice using 5% DSS as drinking water for 7 days, after which the Cy5.5-labeled peptide of SEQ ID NO: 1 was IP-injected thereto.

type I collagen = biological target: T1, type I collagen (Homo sapiens, UniProt P02452+P08123); assay: Slot blotting, selectivity to collagen types: type I (Experimental Example 2); assay type: binding; conditions: peptide at 5, 10, 25, 50 and 100 μg/mL, FIG. 3
T1 construct: purchased MyBioSource, Inc
Protocol: (§1) In order to confirm the selectivity of peptides of SEQ ID NOS: 1 to 3 to collagen types, slot blotting was performed for types I, IV and VII collagen. The NC membrane was activated with TBST, and the peptides of SEQ ID NOS: 1, 2 and 3 were placed in each well at different concentrations (5, 10, 25, 50, and 100 μg/mL) and allowed to bind to the NC membrane in a vacuum for 2 hours. A 1% solution of each of types I, IV and VII collagen (MyBioSource, Inc., San Diego, CA, USA, MBS2018615) was added to the peptide-bound membrane and allowed to bind to the membrane in a vacuum for 2 hours. The membrane was washed with TBST, and the membrane to which the peptides and types I, IV, and VII collagen were attached was allowed to react with a primary rabbit anti-human type VII collagen antibody (MyBioSource, Inc., San Diego, CA, USA, MBS2004594) at a dilution ratio of 1:800 and with a secondary antibody goat anti-rabbit Ig G (BETHYL Lab., Montgomery, TX, USA, A90-116P) at a dilution ratio of 1:5000. The reacted membrane was washed with TBST, and a chemiluminescence test was performed using WEST-one.

[3] = system: colonic epithelial cells (Caco-2 cell); assay: Proliferation of colonic epithelial cells (CCK-8); assay type: cell-based; conditions: 100 μM, 3rd day, FIG. 5
Protocol: In order to confirm the proliferation and migration in colonic epithelial cells (Caco-2 cell, ATCC® HTB-37™) by the peptide according to the present invention, the cells were dispensed in an amount of 5×10^3 cells/well in a 96-well plate and then cultured for 24 hours in DMEM (Dulbecco's Modified Eagle Medium, Gibco). The peptides (SEQ ID NOS: 1, 2, and 3) were dispensed at a concentration of 100 μM in the cells and then cultured for up to 3 days at intervals of 1 day. The cell count was measured using a CCK-8 (Cell Counting Kit-8, CK04, Dojindo Lab.). After 1, 2, and 3 days, the medium containing the peptide was removed, 10% of a CCK-8 solution was added to fresh DMEM, and 100 μl thereof was then dispensed. After 1 hour and 30 minutes, absorbance was measured at 450 nm.

Caco-2 cells = assay: Scratch migration of colonic epithelial cells; assay type: cell-based; conditions: Caco-2 scratch, 100 μM, FIG. 6; for migration area: 2nd day; for cell migration compared to cells not treated with the peptide: up to 48 hours
Protocol: In order to measure cell migration ability, Caco-2 cells (1×10^6 cells) were placed in a 6-well plate and cultured in DMEM supplemented with 10% fetal bovine serum (FBS) and 1% antibiotic-antimycotic solution (Gibco, Grand Island, N.Y., USA). The cells were washed with PBS and allowed to stand overnight in a medium containing 2% FBS. The central portion of the cell layer was scratched using a sterile 200 μl plastic pipette tip. The scratched cell layer was washed twice with PBS to remove unadhered cells. Each of the peptides of SEQ ID NOS: […] at a concentration of 100 μM to the medium, followed by culture for up to 48 hours. The extent of cell migration toward the center from the scratched edges was measured using an Olympus CKX41 inverted microscope (magnification: ×20).

type IV collagen = assay: Slot blotting, selectivity to collagen types: type IV (Experimental Example 2); assay type: binding; conditions: peptide up to 100 μg/mL, FIG. 3
Protocol: as §1

E-cadherin = assay: Real-time RT-PCR of wound-healing marker E-cadherin in colonic epithelial cells; assay type: cell-based; conditions: Caco-2 cells; 50 and 100 μg/ml; 3 days; FIG. 4
Protocol: (§2) In order to confirm the expression level of the wound-healing marker in colonic epithelial cells (Caco-2 cell, ATCC® HTB-37™) by the peptide according to the present invention, colonic epithelial cells were dispensed in an amount of 5×10^6 cells/well in a 6-well plate and then cultured for 24 hours in DMEM (Dulbecco's Modified Eagle Medium, Gibco). The cells were treated with the peptides of SEQ ID NOS: 1, 2, and 3 at concentrations of 50 and 100 μg/ml and then cultured for up to 3 days. After 3 days, the cells were harvested and the gene expression levels of E-cadherin protein, which is highly expressed in colonic epithelial cells, and ZO-1 protein, which is highly expressed at the tight junction between colonic epithelial cells, were measured through real-time RT-PCR.
(§3) RNA was extracted from the obtained cells using TRIzol, and cDNA was synthesized using a kit from Thermo Scientific (cat. No. K1641). The same amount of cDNA was amplified by 40 cycles at 95° C.-60° C. using a SYBR green PCR master mix and a StepOnePlus™ Real-Time PCR System available from Applied Biosystems, and the ΔΔct values of individual groups were compared. The nucleotide sequences of the PCR primers used for amplification of each gene are as follows.

type VII collagen [4] = biological target: T2, type VII collagen (Homo sapiens, UniProt Q02388); assay: Slot blotting, selectivity to collagen types: type VII (Experimental Example 2); assay type: binding; conditions: for peptide concentration at which binding to type VII collagen was observed: peptide at 5, 10, 25, 50 and 100 μg/mL, FIG. 3
T2 construct: purchased MyBioSource, Inc. MBS2018615
Protocol: as §1

type VII collagen [5] = biological target: T2, type VII collagen; assay: Slot blotting, binding ability to type VII collagen (Experimental Example 1); conditions: peptide at 5, 10 and 20 μg/mL, FIG. 2
Protocol: Slot blotting was performed to confirm the ability of the peptides of SEQ ID NOS: 1 and 3 to bind to type VII collagen. The NC membrane was activated with TBST, and the peptides of SEQ ID NOS: 1 and 3 were placed in each well at different concentrations (5, 10, and 20 μg/mL) and allowed to bind to the NC membrane in a vacuum for 2 hours. A 1% solution of type VII collagen (MyBioSource, Inc., San Diego, CA, USA, MBS2018615) was added to the peptide-bound membrane and allowed to bind to the membrane in a vacuum for 2 hours. After washing the membrane with TBST, the membrane to which the peptide and type VII collagen were attached was allowed to react with a primary rabbit anti-human type VII collagen antibody (MyBioSource, Inc., San Diego, CA, USA, MBS2004594) at a dilution ratio of 1:800 and with a secondary antibody goat anti-rabbit Ig G (BETHYL Lab., Montgomery, TX, USA, A90-116P) at a dilution ratio of 1:5000. The reacted membrane was washed with TBST, and a chemiluminescence test was performed using WEST-one. Based on the results of measurement of the ability of the peptide to bind to type VII collagen depending on the peptide concentration, when the concentration of the peptide of SEQ ID NO: 1 was 10 μg/mL or more or the concentration of the peptide of SEQ ID NO: 3 was 5 μg/mL or more, the ability thereof to bind to type VII collagen was confirmed (FIG. 2).

ZO-1 = assay: Real-time RT-PCR of wound-healing marker ZO-1 in colonic epithelial cells; assay type: cell-based; conditions: Caco-2 cells; 50 and 100 μg/ml; 3 days; FIG. 4
Protocol: as §2, §3

integrin beta 1 = biological target: T3, integrin beta 1 (Mus musculus, UniProt P09055); assay: Confocal co-localization of Cy5.5-labeled peptide with integrin beta 1 in colon tissue; assay type: in vivo, mice; conditions: 1 hour after injection, FIG. 11
T3 construct: from tissue; host or cells: colon of mice with DSS-induced colitis
Description: In order to confirm co-localization of synthesized peptide to the colon, inflammation was induced in mice using 5% DSS in drinking water for 7 days, followed by the cy5.5-labeled peptide of SEQ ID NO: 1 was […] thereto. An hour after injection, each mouse was sacrificed and the colon tissue was isolated for analysis. Excised colons were fixed with 4% paraformaldehyde, and made frozen tissue block with Tissue-Tek® O.C.T. compound (4583, Sakura). Frozen tissue block was sectioned using clinical cryostat (CM1950, Leica) and placed on microscope slides.
Each sectioned tissue slides were stained for immunofluorescence. In brief, sectioned slides were permeabilized with 0.5% Triton X-100 (9036-19-5, Sigma-Aldrich) in PBS for 10 min. Next, 5% BSA in PBS were treated 30 minutes for blocking, followed by overnight incubation of anti-integrin beta 1 diluted in blocking buffer. After washing the slides, Alexa Fluor 488 conjugated anti-mouse secondary antibody (A-11001, Thermo Fisher Scientific) was diluted and incubated for an hour, and DAPI staining. Slides were mounted for imaging in confocal microscopy (LSM700, Carl Zeiss).

[6] = system: DSS-induced chronic inflammatory bowel disease; assay: Therapeutic effect in animal model of DSS-induced chronic inflammatory bowel disease; assay type: in vivo, ICR mice
Protocol: In order to confirm the therapeutic effect of the synthesized peptide in animals, chronic inflammatory bowel disease was induced with DSS in ICR mice (Orient Bio). 1.5% DSS was used as drinking water for 7 days, water not containing DSS was provided for the next 7 days, and 1.5% DSS was used as drinking water for the next 7 days (FIG. 9A). Thereafter, the peptide of SEQ ID NO: 1 was administered through SC injection. The normal group (Normal, n=9) was not treated with DSS, and the untreated group (Untreated, n=9) was treated only with DSS, and no drug was injected. The positive control group (Infliximab, 5 mg/kg, n=9) and the peptide of SEQ ID NO: 1 (30 mg/kg, n=9) were injected once daily for 14 days. 28 days after the start of DSS administration, the animals were sacrificed by CO2 hyperventilation, the colons were collected, and the lengths thereof were compared. Additionally, the tissue was fixed and processed to prepare a paraffin block, and H&E staining was performed to determine whether the intestinal tissue was damaged.

T2 sequence (Q02388 17-2944): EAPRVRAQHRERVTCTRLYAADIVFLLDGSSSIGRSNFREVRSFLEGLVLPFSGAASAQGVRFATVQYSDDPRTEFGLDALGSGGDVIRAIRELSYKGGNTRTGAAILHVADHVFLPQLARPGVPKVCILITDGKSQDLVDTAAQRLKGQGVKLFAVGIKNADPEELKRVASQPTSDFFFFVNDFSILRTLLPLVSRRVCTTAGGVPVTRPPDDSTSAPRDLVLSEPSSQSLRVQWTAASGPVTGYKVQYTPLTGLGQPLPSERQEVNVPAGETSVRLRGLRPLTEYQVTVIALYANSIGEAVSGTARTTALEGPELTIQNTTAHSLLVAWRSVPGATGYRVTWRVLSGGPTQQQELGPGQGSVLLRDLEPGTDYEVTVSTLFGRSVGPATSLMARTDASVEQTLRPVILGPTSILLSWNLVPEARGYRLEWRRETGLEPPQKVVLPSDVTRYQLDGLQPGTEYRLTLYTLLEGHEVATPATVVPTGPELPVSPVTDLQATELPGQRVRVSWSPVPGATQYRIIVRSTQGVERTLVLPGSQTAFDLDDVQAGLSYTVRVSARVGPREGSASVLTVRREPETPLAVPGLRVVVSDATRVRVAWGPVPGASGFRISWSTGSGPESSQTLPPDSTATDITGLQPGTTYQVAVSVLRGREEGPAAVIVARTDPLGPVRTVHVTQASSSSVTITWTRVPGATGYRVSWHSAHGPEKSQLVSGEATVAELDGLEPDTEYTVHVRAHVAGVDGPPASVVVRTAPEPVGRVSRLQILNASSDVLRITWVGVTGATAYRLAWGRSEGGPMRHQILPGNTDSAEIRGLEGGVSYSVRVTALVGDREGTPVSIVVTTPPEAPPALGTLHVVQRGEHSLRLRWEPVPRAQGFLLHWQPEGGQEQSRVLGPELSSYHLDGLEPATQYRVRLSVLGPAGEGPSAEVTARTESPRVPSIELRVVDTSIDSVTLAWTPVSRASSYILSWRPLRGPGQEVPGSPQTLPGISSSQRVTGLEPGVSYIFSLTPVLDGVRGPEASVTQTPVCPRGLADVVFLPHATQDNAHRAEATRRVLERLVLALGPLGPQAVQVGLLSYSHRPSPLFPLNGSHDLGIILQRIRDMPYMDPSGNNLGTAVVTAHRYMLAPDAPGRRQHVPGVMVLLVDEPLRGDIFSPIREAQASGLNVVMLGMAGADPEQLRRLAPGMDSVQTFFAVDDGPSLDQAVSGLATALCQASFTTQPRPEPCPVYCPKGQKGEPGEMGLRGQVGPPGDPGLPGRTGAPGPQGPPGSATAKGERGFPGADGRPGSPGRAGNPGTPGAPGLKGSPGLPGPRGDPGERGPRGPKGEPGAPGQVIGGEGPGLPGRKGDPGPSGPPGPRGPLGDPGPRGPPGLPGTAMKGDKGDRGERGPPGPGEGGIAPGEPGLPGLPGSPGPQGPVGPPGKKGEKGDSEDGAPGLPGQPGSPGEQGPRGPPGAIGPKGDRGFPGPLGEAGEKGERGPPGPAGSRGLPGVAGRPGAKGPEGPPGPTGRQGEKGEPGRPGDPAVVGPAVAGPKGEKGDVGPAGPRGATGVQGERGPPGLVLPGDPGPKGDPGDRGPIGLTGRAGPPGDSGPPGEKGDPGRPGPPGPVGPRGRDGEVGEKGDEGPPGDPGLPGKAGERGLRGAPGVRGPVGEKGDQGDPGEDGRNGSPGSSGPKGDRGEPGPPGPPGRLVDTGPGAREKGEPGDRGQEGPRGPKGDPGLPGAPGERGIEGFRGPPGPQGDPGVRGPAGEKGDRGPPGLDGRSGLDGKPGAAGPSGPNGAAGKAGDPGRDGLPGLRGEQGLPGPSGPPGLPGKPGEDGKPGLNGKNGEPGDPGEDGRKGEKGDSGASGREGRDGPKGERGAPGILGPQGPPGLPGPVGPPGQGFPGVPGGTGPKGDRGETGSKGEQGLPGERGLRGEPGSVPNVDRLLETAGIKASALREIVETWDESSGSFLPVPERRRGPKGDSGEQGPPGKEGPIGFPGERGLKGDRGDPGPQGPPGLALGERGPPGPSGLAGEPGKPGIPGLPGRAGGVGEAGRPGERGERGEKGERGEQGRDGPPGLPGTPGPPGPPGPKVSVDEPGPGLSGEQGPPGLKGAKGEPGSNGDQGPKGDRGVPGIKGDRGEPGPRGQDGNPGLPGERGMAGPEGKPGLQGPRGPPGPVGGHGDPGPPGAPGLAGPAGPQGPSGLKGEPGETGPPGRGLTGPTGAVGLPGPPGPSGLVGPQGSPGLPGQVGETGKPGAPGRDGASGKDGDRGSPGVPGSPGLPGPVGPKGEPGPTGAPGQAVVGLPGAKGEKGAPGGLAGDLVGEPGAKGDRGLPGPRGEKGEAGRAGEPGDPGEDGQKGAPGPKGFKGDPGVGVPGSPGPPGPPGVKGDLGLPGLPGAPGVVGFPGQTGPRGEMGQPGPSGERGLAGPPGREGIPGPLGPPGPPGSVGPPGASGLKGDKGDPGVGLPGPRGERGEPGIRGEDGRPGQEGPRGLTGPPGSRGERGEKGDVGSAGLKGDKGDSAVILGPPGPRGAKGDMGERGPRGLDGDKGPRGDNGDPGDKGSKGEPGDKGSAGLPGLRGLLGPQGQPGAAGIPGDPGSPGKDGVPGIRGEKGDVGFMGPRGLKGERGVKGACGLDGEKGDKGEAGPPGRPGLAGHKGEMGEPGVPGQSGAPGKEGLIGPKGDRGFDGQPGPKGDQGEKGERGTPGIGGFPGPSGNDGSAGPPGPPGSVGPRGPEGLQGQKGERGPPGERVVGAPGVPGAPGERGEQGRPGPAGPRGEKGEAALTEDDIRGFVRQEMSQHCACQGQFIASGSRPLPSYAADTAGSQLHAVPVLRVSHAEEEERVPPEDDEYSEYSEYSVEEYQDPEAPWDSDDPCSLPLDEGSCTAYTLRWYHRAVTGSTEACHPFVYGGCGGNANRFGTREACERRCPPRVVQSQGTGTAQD
T3 sequence (P09055 21-798): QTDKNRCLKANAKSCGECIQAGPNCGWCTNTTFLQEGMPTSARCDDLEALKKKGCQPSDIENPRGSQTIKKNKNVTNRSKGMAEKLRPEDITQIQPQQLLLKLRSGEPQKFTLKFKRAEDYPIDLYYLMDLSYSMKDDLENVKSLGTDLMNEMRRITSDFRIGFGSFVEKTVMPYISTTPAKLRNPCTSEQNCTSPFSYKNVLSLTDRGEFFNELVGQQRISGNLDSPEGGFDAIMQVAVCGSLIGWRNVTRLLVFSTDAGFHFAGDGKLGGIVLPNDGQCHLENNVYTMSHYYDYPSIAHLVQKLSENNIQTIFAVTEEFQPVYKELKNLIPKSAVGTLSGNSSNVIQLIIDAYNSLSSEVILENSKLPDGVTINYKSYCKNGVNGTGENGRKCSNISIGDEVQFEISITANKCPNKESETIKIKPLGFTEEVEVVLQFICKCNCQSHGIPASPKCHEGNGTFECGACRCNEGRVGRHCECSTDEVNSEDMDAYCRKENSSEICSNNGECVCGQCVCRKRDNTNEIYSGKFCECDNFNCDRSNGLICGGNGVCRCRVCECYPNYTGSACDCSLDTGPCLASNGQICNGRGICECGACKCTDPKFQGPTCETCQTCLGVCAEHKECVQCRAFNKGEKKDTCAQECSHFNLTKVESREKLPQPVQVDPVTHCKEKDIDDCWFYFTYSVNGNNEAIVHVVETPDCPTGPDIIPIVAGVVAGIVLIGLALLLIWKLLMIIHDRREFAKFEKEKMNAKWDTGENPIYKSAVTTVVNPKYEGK

Row | Compound | fluorescence in small intestine and colon (IVIS) [2] | peptide concentration at which binding to type I collagen was observed (type I collagen) [µg/mL] | cell proliferation rate compared to the control group (cells not treated with the peptide) [3] [%] | migration area (Caco-2 cells) [%] | cell migration compared to cells not treated with the peptide (Caco-2 cells) | binding to type IV collagen (type IV collagen) | gene expression of E-cadherin (E-cadherin) | selectivity to type VII collagen versus types I and IV collagen (type VII collagen [4]) | peptide concentration at which binding to type VII collagen was observed (type VII collagen [4]) | gene expression of ZO-1 (ZO-1) | further results
1 | O=C(CCCCCCC(=O)Nc1ccccc1)NO [SAHA] | – | – | – | – | – | – | – | – | – | – | colon length ([1]; 5% DSS 7 days, IP once daily, SEQ ID NO: 1 50 mg/kg, SAHA 25 mg/kg, antibody 1 mg/kg, p<0.05 vs untreated, FIG. 8): maintained the colon length; inflammatory cells in the intestinal mucosa (H&E histology) ([1]; acute DSS model, FIG. 8 part c): significantly decreased; villi structure (H&E histology) ([1]; acute DSS model, FIG. 8 part c): villi structure was maintained well
2 | Cy5.5 [reference compound] | almost no fluorescence was observed at 180 minutes | – | – | – | – | – | – | – | – | – | –
3 | LTEFPLRMRDWLKN (Human osteonectin 160-173) [SEQ ID NO: 3] | – | 100 | 51 | 56 | increased cell migration | did not bind | increased with an increase in the concentration of the peptide | higher selectivity to type VII collagen | at least 10 μg/mL | increased with an increase in the concentration of the peptide | peptide concentration at which the ability to bind to type VII collagen was confirmed (type VII collagen [5]): ≥ 5 µg/mL
4 | RPRYYLYKHAYFYPHLKRFP (human bone sialoprpotein II 41-60) [SEQ ID NO: 2, Human bone sialoprotein II 41-60] | – | 50 | 56 | 75 | increased cell migration | did not bind | increased with an increase in the concentration of the peptide | higher selectivity to type VII collagen | at least 20 μg/mL | increased with an increase in the concentration of the peptide | –
5 | YGLRSKSKKFRRPDIQYPDAT-NH2 (C-terminus assumed) [SEQ ID NO: 1] | red fluorescence was constantly observed in the small intestine and colon from the initial 30 minutes to 180 minutes | – | – | – | – | – | – | – | – | – | localization of peptide in DSS-induced mouse colon (integrin beta 1; 5% DSS 7 days): detected in colon tissue; localization of peptide in normal colon (integrin beta 1): does not show any localization
6 | infliximab | – | – | – | – | – | – | – | – | – | – | inflammatory cells in the intestinal mucosa (H&E histology) ([6]; FIG. 9G): inflammatory cells in the intestinal mucosa were observed; villi structure (H&E histology) ([6]; FIG. 9G): some improvement compared to the untreated group, but villous damage; colon length ([6]; SEQ ID NO: 1 30 mg/kg SC, infliximab 5 mg/kg, once daily 14 days, p<0.05 vs untreated, FIG. 9D): maintained the colon length
